Experimental data: ChEMBL document CHEMBL1142452, “Pyrazolidine-3,5-dione derivatives as potent non-steroidal agonists of farnesoid X receptor: virtual screening, synthesis, and biological evaluation” (Bioorg Med Chem Lett, 2008)
The source made the active and inactive calls. The rule behind the calls is not given here.

Columns and labels:
Bile acid receptor = molecular target: T1, Bile acid receptor (Homo sapiens, UniProt Q96RI1); experiment: Agonist activity at FXR assessed as activation by cell based luciferase transactivation assay; type: functional
T1 sequence (Q96RI1 whole entry): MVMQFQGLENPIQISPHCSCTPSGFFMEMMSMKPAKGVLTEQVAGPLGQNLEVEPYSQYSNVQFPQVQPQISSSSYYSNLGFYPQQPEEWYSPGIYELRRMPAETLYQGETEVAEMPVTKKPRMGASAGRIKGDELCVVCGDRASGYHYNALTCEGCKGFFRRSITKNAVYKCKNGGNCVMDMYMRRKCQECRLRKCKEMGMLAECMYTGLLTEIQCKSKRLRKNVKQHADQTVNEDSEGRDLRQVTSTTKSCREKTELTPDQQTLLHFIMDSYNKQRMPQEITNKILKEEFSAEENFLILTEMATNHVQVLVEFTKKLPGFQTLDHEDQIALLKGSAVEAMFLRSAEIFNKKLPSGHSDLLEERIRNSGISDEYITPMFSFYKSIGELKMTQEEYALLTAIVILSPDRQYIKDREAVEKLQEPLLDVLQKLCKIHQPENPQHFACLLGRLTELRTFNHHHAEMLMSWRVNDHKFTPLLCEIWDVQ

[1] = molecular target: T2, Bile acid receptor (Homo sapiens) (UniProt Q96RI1); experiment: Agonist activity at FXR assessed as activation by cell based luciferase transactivation assay at less than 5 uM; type: functional
T2 sequence (whole entry): T1 sequence (Q96RI1 whole entry)

EC50 (Bile acid receptor)	Activity [1]	SMILES
6.31 µM	Active	O=C1C(=Cc2ccc(OCc3ccccc3)cc2)C(=O)N(c2ccccc2)N1c1ccccc1
2.4 µM	Active	Cc1cccc(COc2cccc(/C=C3\C(=O)NN(C(=O)c4ccncc4)C3=O)c2)c1
4.79 µM	–	O=C1NN(c2ccccc2)C(=O)/C1=C/c1cccc(OCc2cccc(F)c2)c1
6.92 µM	–	O=C1NN(c2ccccc2)C(=O)/C1=C/c1cccc(OCc2cccc(C(F)(F)F)c2)c1
5.15 µM	–	Cc1cccc(COc2cccc(/C=C3\C(=O)NN(c4ccccc4)C3=O)c2)c1
1.86 µM	Active	Cc1cccc(COc2cccc(/C=C3\C(=O)NN(C(=O)c4ccc(F)cc4)C3=O)c2)c1
3.98 µM	–	O=C1NN(C(=O)c2ccccc2)C(=O)/C1=C/c1ccc(OCc2ccccc2)cc1
6.17 µM	–	CCOC(=O)C(=Cc1ccc(OCc2ccccc2)cc1)C(=O)OCC
3.31 µM	–	O=C1NN(C(=O)c2ccco2)C(=O)/C1=C/c1ccc(OCc2ccccc2)cc1
5.37 µM	–	Cc1cccc(COc2cccc(/C=C3\C(=O)NN(c4ccccc4[N+](=O)[O-])C3=O)c2)c1
2.04 µM	Active	O=C1NN(c2ccccc2)C(=O)/C1=C/c1cccc(OCc2ccc(C(F)(F)F)cc2)c1
4.27 µM	–	O=C1C(=Cc2cccc([N+](=O)[O-])c2)C(=O)N(c2ccccc2)N1c1ccccc1
